Consider 4 compounds from PMC11206507, “Unraveling the Impact of Six Pentacyclic Triterpenes Regulating Metabolic Pathways on Lung Carcinoma Cells” (Pharmaceuticals, 2024).

The test system of one data set is PDL1 gene. Kind of data set: RT-qPCR gene expression of PDL1. The format is cell-based, human. The following applies: for PDL1 gene expression (in words): A549, IC25 (CisPt 25 μM), 24 h. The protocol:
A549 cells were seeded into 6-well plates at a density of 1 × 10^6 cells/mL in supplemented DMEM. The cells were incubated with the triterpenes (IC25) for 24 h. Total RNA was extracted from the cells using the TRIzol reagent (Invitrogen Corporation, Carlsbad, CA, USA) according to the manufacturer’s instructions. The purity and concentration of RNA were assessed using a NanoDrop spectrophotometer (Thermo Fisher Scientific). cDNA was synthesized using the High-Capacity cDNA Reverse Transcription Kit (Applied Biosystems) according to the manufacturer’s instructions.
RT-qPCR was performed on a StepOnePlus® Real-Time PCR System (Thermo Fisher Scientific) using TaqMan Gene Expression Assays (Applied Biosystems) for PDL1 (CD274; Assay ID: Hs01125297_m1), ribonucleotide reductase (RR) M1 (Assay ID: Hs01040697_m1), and STAT3 (Assay ID: Hs01047586_g1). Each reaction consisted of 10 ng of cDNA, TaqMan Gene Expression Master Mix (Applied Biosystems), and TaqMan probes. The PCR cycling conditions were as follows: 95 °C for 10 min, followed by 40 cycles of 95 °C for 15 s and 60 °C for 60 s. The relative gene expression levels were calculated using the ΔΔCt method. GAPDH (Assay ID: Hs02758991_g1) was used as the endogenous control for normalization.
All RT-qPCR experiments were performed at least in triplicate. All data were expressed by plotting values with an average of four measurements for each treatment condition as the mean ± SD and analyzed with the software GraphPad Prism 9. Statistical analysis was performed using one-way analysis of variance (ANOVA) to compare the mean value of each treated type of cells versus the control (untreated cells). The statistical significance defined by the software for p values was **** < 0.0001, *** from 0.001 to 0.0001, ** from 0.001 to 0.01, * from 0.01 to 0.05, and non-significant (ns) ≥ 0.05.
(In general: Quantitative PCR measures a nucleic acid by following its amplification.)

Data set [1] deals with A549 cells. Description: Mitochondrial ROS production assay (DHE, flow cytometry). It is filed as cell-based, human. Conditions: A549, IC25, 24 h; for Amount of mROS, on average of the three named triterpenes, compared to the untreated cells: group average. The protocol: (§1) We used flow cytometry to analyze several cellular mechanistic pathways in A549 cells after incubation with the triterpenes. In general, the cells were seeded in a 6-well plate at a density of 1 × 10^6 cells/mL and incubated for 24 h in supplemented DMEM. After 24 h, the A549 cells were treated with the triterpenes, following each manufacturer’s protocol. All of the following experiments were performed in a Muse® Cell Analyzer (EMD Millipore Corporation, Temecula, CA). The instrument was calibrated before each assay using the Muse® System Check Kit (Luminex MCH100101, Luminex Corporation). Each assay was run at least in two independent experiments. For each experiment, all samples were analyzed in triplicate in the instrument and the capillary line was washed after each sample run to avoid artifacts. In addition, to address the issue of cell doublets, we used the Muse® Cell Dispersal Reagent (Luminex Corporation) in all experiments. The concentration of the triterpenes in each assay was selected depending on the cellular concentration necessary to generate the gain signal in the instrument. This means that we attempted to select concentrations avoiding excessive cytotoxicity to accurately determine the respective signal from each assay.
The production of reactive oxygen species (ROS) by mitochondria was determined using the Oxidative Stress Kit (Luminex MCH100111, Luminex Corporation). After the A549 cells were treated with the triterpenes (IC25) for 24 h, the cells were scraped and centrifuged. For ROS, the cell pellet was incubated with dihydroethidium (DHE) dye for 1 h at 37 °C.

The subject of data set [2] is A549 cells. Kind of data set: Total ROS production assay (DCF). The format is cell-based, human. The following applies: A549, IC25 (CisPt 25 μM), 24 h. Here is the method:
The production of total ROS was determined using the 2′,7′-dichlorodihydrofluorescein diacetate (DCF) fluorescent dye. A549 cells were seeded in a concentration of 1 × 10^5 cells/mL into black 96-well plates with a clear bottom. After 24 h, the cells were incubated with the triterpenes (IC25) and controls for 24 h. Then, 50 μL of DCF (10 μM) was added to each well and they were incubated for 1 h at room temperature. Then, the fluorescence of each well was measured (Ex/Em = 485/530 nm) in the Tecan® M200 plate reader.
This experiment was performed in triplicate. All data were expressed by plotting the values as an average of three measurements for each treatment condition as the mean ± SD and analyzed with the software GraphPad Prism 9. Statistical analysis was performed using one-way analysis of variance (ANOVA) to compare the mean value of each treated type of cells versus the control (untreated cells). The statistical significance defined by the software for p values was **** < 0.0001, *** from 0.001 to 0.0001, ** from 0.001 to 0.01, * from 0.01 to 0.05, and non-significant (ns) ≥ 0.05.

Data set [3] is described as follows: MTS/PMS cell viability, MRC5. Conditions: human, MRC5 normal lung fibroblast cells. The format is cell-based. Here is the method: The 50% inhibitory concentration (IC50) of some of these triterpenes in A549 NSCLC cells were previously determined by us. A similar procedure was performed to determine the IC50 of the triterpenes in a normal lung fibroblast cell line (MRC5). In brief, the A549 and MRC5 cells were seeded into 96-well plates at a density of 1 × 10^5 cells/mL in supplemented DMEM medium. The cells were treated with specific concentrations (A549: 5, 10, 25, 50, 75, 100, 125,150, 175, 200 μM; MRC5: 5, 10, 25, 50, 75, 100 μM) of the triterpenes and incubated for 24 h. Then, 10 uL of the MTS reagent from the CellTiter 96® Aqueous Non-Radioactive Cell Proliferation Assay (Promega G5421) was added to each well. Then, we incubated the plates at 37 °C and in a 5% CO2 atmosphere for 1 h. After incubation, the absorbance was measured at 492 nm (n = 8) in a microplate reader spectrophotometer (Thermoscientific Multiskan FC). The cell viability was calculated as follows:% Viability = (sample absorbance − sample media absorbance)/(untreated cells’ absorbance − untreated cells’ media absorbance) × 100
The cell viability data were presented by plotting the values with an average of eight measurements for each treatment (mean ± SD) in at least three independent experiments. The IC50 values were calculated with the GraphPad Prism 9 software (Prism 9; GraphPad by Dotmatics, San Diego, CA, USA) using the dose–response curve. The data were normalized by the non-linear fit of the log (drug inhibition) vs. normalized response variable slope to obtain the best fit IC50 and R-squared values.

Data set [4] deals with DNA damage machinery in A549 cells. Description: DNA damage assay (anti-pH2AX / anti-pATM, flow cytometry). The format is cell-based, human. The following applies: A549, IC50, 24 h, vs untreated cells. The protocol:
as §1
Then, the A549 cells were scraped and centrifuged. The pellet was suspended in the assay buffer from the Luminex MCH200107 kit (Luminex Corporation). […]
A general note: Flow cytometry measures light scatter and fluorescence of single cells or particles in a stream.

Usually IC50 stands for the concentration at which inhibition is half-maximal. Lower therefore signals inhibition by little substance. With `C=C(C)[C@@H]1CC[C@]2(C(=O)O)CC[C@]3(C)[C@H](CC[C@@H]4[C@@]5(C)CC[C@H](O)C(C)(C)[C@@H]5CC[C@]43C)[C@@H]12` [BeA, betulinic acid], in the data set with PDL1 gene, the “PDL1 gene expression (in words)” value is listed as “superior in suppressing both genes”. In addition, the “mROS production (in words)” value in the data set with A549 cells [1] (vs negative control) is “largest level of mROS”. Also, the “Amount of mROS, on average of the three named triterpenes, compared to the untreated cells” value in the data set with A549 cells [1] was 26.2%. The “Total ROS production (in words)” value in the data set on A549 cells [2] is listed as “highest increase in total ROS”. In data set [3], this compound returned an IC50 at 24 h of 19 ± 0.4 µM.

Turning to `C=C(C)[C@@H]1CC[C@]2(CO)CC[C@]3(C)[C@H](CC[C@@H]4[C@@]5(C)CC[C@H](O)C(C)(C)[C@@H]5CC[C@]43C)[C@@H]12` [Betu, betulin], the “PDL1 gene expression (in words)” value in the data set on PDL1 gene is “did not inhibit”. In the data set on PDL1 gene (summary, NSCLC A549 cells), the PDL1 downregulation result is reported as “-”. For the same compound, in data set [3], 16 ± 0.5 µM corresponded to half-maximal inhibition (IC50 at 24 h).

For the compound `C=C(C)[C@@H]1CC[C@]2(C)CC[C@]3(C)[C@H](CC[C@@H]4[C@@]5(C)CC[C@H](O)C(C)(C)[C@@H]5CC[C@]43C)[C@@H]12` [Lupe, lupeol], the “Amount of mROS, on average of the three named triterpenes, compared to the untreated cells” value in the data set with A549 cells [1] turned out to be 26.2%. This compound also showed a half-inhibitory concentration (IC50) at 24 h in data set [3] of 101 ± 8 µM.

For `C[C@H]1[C@H](C)CC[C@]2(C(=O)O)CC[C@]3(C)C(=CC[C@@H]4[C@@]5(C)CC[C@H](O)C(C)(C)[C@@H]5CC[C@]43C)[C@H]12` [UrA, ursolic acid], the “Activation of the DNA damage machinery (in words)” value in data set [4] is “caused the activation of the DNA damage machinery”. This compound also came in with an IC50 at 24 h in data set [3] of 13 ± 1 µM.
